Laboratory results from patent publication US20100222421A1, “Usage of Baicalein in the Preparation of a Pharmaceutical Composition for the Treatment of Traumatic Brain Injury” (National Defense Medical Center, priority 2009, published 2010).

Test system: rats with controlled cortical impact (CCI) injury
Experiment: Rotarod test after CCI injury
Format: in vivo, rat
Details: for performance on the rotarod test versus vehicle-treated rats: days 1 to 28, P<0.05
Method: A previously described CCI injury procedure was utilized (Chen et al., 2003). Male Sprague-Dawley rats, which have body weight of 250-300 g, were anaesthetized with sodium pentobarbital (i.p.; 50 mgkg^−1; Rhone Merieux, Harlow, UK) and placed in a stereotaxic frame. A 5-mm craniotomy was performed over the left parietal cortex, centered on the coronal suture and 3 mm lateral to the sagittal suture. Considerable care was taken to avoid injury to the underlying dura. Injury was made using a pneumatic piston with a rounded metal tip (2.5 mm diameter) that was angled 22.5° C. to the vertical so that the tip was perpendicular with the brain surface at the centre of the craniotomy. A velocity of 4 ms^−1 and a deformation depth 2 mm below the dura were used. The bone flap was immediately replaced and sealed, and the scalp was closed with sutures. Body temperature was monitored throughout the surgery by a rectal probe; temperature was maintained at 37.0±0.5° C. using a heated pad. Rats were placed in a heated cage to maintain body temperature, while recovering from anaesthesia.
Baicalein (30 mg kg^−1) dissolved in 10% dimethyl sulphoxide (0.25-0.3 mL) or a corresponding volume of vehicle (10% dimethyl sulphoxide) was administered i.p. immediately following injury or daily for 4 days (immediately, 25, 49 and 73 h) after injury. Behaviour testing using the rotarod, tactile adhesive removal, mNSS and beam walk tests was performed at 28 hours as well as 4, 7, 14, 21 and 28 days post-injury. […]
An accelerating rotarod was used to measure rat motor function and balance (Hamm, 2001). Each rat was placed on the rotarod cylinder, and the time for which the animal remained on the rotarod was measured. […] One hour before CCI, the mean duration on the device was recorded with three rotarod measurements as the pre-injury baseline values. Post-injury latencies were expressed as a percentage of their respective baseline values to reduce inter-animal variability.

O=c1cc(-c2ccccc2)oc2cc(O)c(O)c(O)c12 [baicalein]
rotarod test, multiple-dose versus single-dose treatment (30 mg kg^-1 i.p., days 1, 4, 7 and 21 after injury): significantly more effective
performance on the rotarod test versus vehicle-treated rats (multiple-dose 30 mg kg^-1 i.p. daily for 4 days): significantly better
performance on the rotarod test versus vehicle-treated rats (single-dose 30 mg kg^-1 i.p. immediately after injury): significantly better
